Assay results as given in PubChem BioAssay (NCI).
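Compound exposure: 48 hours, 5 concentrations, 96-well plates. TGI: total growth inhibition.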

Legend:
Assay in all cases: NCI tumour cell line growth inhibition, 48 h
[1] = test system: A549 NSCLC
[2] = test system: MDA-N
[3] = test system: SNB-19 CNS
[4] = test system: LOX IMVI melanoma
[5] = test system: DU-145 prostate
[6] = test system: NCI-H226 lung
[7] = test system: PC-3 prostate
[8] = test system: HCT-15 colon
[9] = test system: NCI-H460 lung
[10] = test system: SK-MEL-2 melanoma
[11] = test system: HL-60(TB) leukemia
[12] = test system: IGROV1 ovarian
[13] = test system: SF-295 CNS
[14] = test system: HT29 colon
[15] = test system: T-47D breast
[16] = test system: NCI/ADR-RES ovarian
[17] = test system: CAKI-1 renal
[18] = test system: RXF 393 renal

| SMILES | TGI [1] | TGI [2] | TGI [3] | TGI [4] | TGI [5] | TGI [6] | TGI [7] | TGI [8] | TGI [9] | TGI [10] | TGI [11] | TGI [12] | TGI [13] | TGI [14] | TGI [15] | TGI [16] | TGI [17] | TGI [18] |
| --- | --- | --- | --- | --- | --- | --- | --- | --- | --- | --- | --- | --- | --- | --- | --- | --- | --- | --- |
| COc1ccc(C(=O)N2CCN(c3ccc4c(c3)OCC(=O)N4)CC2)cc1OC | > 100 µM | > 100 µM | > 100 µM | > 100 µM | > 100 µM | > 100 µM | > 100 µM | > 100 µM | > 100 µM | > 100 µM | > 100 µM | > 100 µM | > 100 µM | > 100 µM | > 100 µM | > 100 µM |  |  |
| N#Cc1sc2c(c1OC(=O)c1ccc(Cl)cc1)c(=O)n(-c1ccccc1)c(=S)n2-c1ccccc1 | > 100 µM | 55.1 µM | 61.4 µM | 37.3 µM | > 100 µM | 86.7 µM | 80.2 µM | 35.4 µM | 33.3 µM |  | 46.6 µM | 40.5 µM | 65.9 µM | 76.3 µM | > 100 µM | 73.2 µM | 60.3 µM | 50.7 µM |
| COC(=O)CNC(=O)CNC(=O)CSc1nnc(COc2ccc(Cl)cc2)n1-c1ccccc1 | > 100 µM | 55.4 µM | > 100 µM | 57.7 µM | > 100 µM | > 100 µM | > 100 µM | > 100 µM | > 100 µM | 43.9 µM |  | 39.4 µM | > 100 µM | > 100 µM |  | > 100 µM | 31.7 µM | 36.8 µM |
| Cc1ccc(N=NN(C)C(C)C(O)Cc2ccccc2)cc1 (stereo not given) | > 100 µM | > 100 µM | > 100 µM |  | > 100 µM | > 100 µM | > 100 µM | > 100 µM | > 100 µM | > 100 µM | > 100 µM | > 100 µM | > 100 µM | > 100 µM | 88.5 µM | > 100 µM | > 100 µM | > 100 µM |
| O=C(O)C1CC(C2CCCCN2)CN2CCCCC12 (stereo not given) | > 100 µM | > 100 µM | > 100 µM | > 100 µM | > 100 µM | > 100 µM | > 100 µM | > 100 µM | > 100 µM | > 100 µM |  | > 100 µM | > 100 µM | > 100 µM | > 100 µM | > 100 µM | > 100 µM | > 100 µM |
| NC1=NCC(CN2CCCCC2)O1 (stereo not given) | > 100 µM | > 100 µM | > 100 µM | > 100 µM |  | > 100 µM | > 100 µM | > 100 µM | > 100 µM |  | > 100 µM | > 100 µM | > 100 µM | > 100 µM | > 100 µM | > 100 µM | > 100 µM | > 100 µM |
| O=C1NC(=S)N/C1=C\c1ccc(Cl)cc1 | > 100 µM | > 100 µM | > 100 µM | > 100 µM | > 100 µM | > 100 µM | > 100 µM | > 100 µM |  | > 100 µM |  | > 100 µM | > 100 µM | > 100 µM | > 100 µM | > 100 µM | > 100 µM | > 100 µM |
